We go through 13 compounds from ChEMBL document CHEMBL4392822, “HSP60/10 chaperonin systems are inhibited by a variety of approved drugs, natural products, and known bioactive molecules” (Bioorg Med Chem Lett, 2019).

In assay [1] the target is T1, Thiosulfate sulfurtransferase (Homo sapiens, UniProt Q16762).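 Further: native rhodanese of unspecified species, enzyme activity read after 45 min by spectrophotometric detection of Fe(SCN)3 colour, IC50 reflects activity reduction.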
T1 sequence (Q16762 whole entry): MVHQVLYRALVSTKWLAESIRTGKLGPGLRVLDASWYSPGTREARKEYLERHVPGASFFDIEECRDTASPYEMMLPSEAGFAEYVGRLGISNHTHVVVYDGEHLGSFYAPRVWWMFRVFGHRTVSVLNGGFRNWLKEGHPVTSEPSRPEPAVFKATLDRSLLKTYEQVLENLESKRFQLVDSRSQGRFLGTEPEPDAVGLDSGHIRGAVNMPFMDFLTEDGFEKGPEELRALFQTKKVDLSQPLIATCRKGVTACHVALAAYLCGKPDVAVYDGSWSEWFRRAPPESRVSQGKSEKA
It counts as ADME.
Description: Inhibition of native rhodanese (unknown origin) assessed as reduction in rhodanese enzyme activity after 45 mins by Fe(SCN)3 dye based spectrometric analysis

In a further assay the target is Chaperonin GroEL (Escherichia coli (strain K12), UniProt P0A6F5).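 Further: inhibition of GroEL ATPase activity with ATP as substrate, 60 min incubation, spectrometric read-out, recombinant enzyme produced in Escherichia coli DH5alpha.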
The next assay concerns the target HSP60/HSP10 (Homo sapiens, UniProt P10809).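 Further: His-tagged human HSP60 with HSP10 refolding denatured MDH, read as MDH activity on mesoxalate by malachite green spectrometry, inhibition of refolding.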
For assay [2], the target named is T2, E. coli GroEL/ES (Escherichia coli, UniProt P0A6F5).
Description: Inhibition of Escherichia coli GroEL expressed in Escherichia coli DH5alpha/Escherichia coli GroES expressed in Escherichia coli BL21 (DE3) assessed as reduction in GroEL/GroES-mediated denatured rhodanese refolding by measuring rhodanese enzyme activity after 45 mins by Fe(SCN)3 dye based spectrometric analysis
In assay [3] the target is T2, E. coli GroEL/ES. This is another data set of the same source.
Description: Inhibition of Escherichia coli GroEL expressed in Escherichia coliDH5alpha/Escherichia coli GroES expressed in Escherichia coli BL21 (DE3) assessed as reduction in GroEL/GroES-mediated denatured soluble pig heart MDH refolding by measuring MDH enzyme activity using sodium mesoxalate as substrate after 20 to 40 mins by malachite green dye based spectrometric analysis

HSP60/HSP10, sequence (P10809 whole entry): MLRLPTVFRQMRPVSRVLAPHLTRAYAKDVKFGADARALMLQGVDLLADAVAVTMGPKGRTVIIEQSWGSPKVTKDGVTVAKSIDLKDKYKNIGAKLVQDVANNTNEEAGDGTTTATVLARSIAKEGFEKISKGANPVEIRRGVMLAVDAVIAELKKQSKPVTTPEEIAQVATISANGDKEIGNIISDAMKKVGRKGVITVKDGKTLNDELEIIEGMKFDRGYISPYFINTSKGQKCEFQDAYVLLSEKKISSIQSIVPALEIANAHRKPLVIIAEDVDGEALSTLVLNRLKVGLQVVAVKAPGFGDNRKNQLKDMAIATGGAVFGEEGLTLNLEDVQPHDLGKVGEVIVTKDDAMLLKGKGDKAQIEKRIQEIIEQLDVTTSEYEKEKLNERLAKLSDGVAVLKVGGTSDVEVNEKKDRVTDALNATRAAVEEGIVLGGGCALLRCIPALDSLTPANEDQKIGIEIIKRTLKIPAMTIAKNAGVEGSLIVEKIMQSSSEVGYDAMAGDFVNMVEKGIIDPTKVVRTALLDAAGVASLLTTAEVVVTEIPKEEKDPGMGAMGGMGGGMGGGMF
HSP60/HSP10, sequence (P61604 whole entry, further chain): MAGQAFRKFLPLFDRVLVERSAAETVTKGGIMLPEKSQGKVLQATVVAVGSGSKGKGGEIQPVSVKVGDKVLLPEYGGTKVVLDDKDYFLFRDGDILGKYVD
Chaperonin GroEL, sequence (P0A6F5 whole entry): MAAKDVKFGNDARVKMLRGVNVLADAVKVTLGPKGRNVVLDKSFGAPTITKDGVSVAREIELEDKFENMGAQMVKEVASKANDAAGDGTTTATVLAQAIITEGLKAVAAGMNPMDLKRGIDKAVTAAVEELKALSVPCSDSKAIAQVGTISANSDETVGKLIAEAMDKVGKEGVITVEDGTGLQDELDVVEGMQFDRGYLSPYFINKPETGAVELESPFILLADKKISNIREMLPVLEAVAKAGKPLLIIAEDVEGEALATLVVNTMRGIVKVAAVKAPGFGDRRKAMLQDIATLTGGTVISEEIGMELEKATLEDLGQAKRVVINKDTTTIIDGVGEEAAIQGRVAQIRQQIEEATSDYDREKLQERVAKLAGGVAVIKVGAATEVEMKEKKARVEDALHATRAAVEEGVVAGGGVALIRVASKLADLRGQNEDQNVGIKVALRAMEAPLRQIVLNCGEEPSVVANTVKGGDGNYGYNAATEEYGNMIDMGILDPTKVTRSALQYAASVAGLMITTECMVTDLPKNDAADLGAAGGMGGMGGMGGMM
T2 sequence (P0A6F5 whole entry, looked up): as the sequence (P0A6F5 whole entry) above
Description for Chaperonin GroEL: Inhibition of ATPase activity of Escherichia coli GroEL expressed in Escherichia coliDH5alpha incubated for 60 mins using ATP by spectrometric analysis
Description for HSP60/HSP10: Inhibition of human N-terminal octa-His-tagged HSP60 expressed in Escherichia coli Rosetta(DE3) pLysS/human HSP10 expressed in Escherichia coli Rosetta(DE3) assessed as reduction in HSP60/HSP10-mediated denatured MDH refolding by measuring MDH enzyme activity using sodium mesoxalate as substrate after 40 to 60 mins by malachite green dye based spectrometric analysis

As usually defined, the IC50 is the midpoint of a concentration-inhibition curve. In the case of `O=c1c(O)c(-c2ccc(O)cc2O)oc2cc(O)cc(O)c12` [MORIN], the IC50 in assay [1] is 57 µM; on Chaperonin GroEL, > 250 µM; at HSP60/HSP10, 11 µM; against E. coli GroEL/ES [2] it was 5.2 µM; at E. coli GroEL/ES [3], 8.5 µM.

Regarding `Cc1cc2c(C(C)C)c(O)c(O)c(C=O)c2c(O)c1-c1c(C)cc2c(C(C)C)c(O)c(O)c(C=O)c2c1O`, the 50% inhibitory concentration (IC50) in assay [1] is 11 µM; on Chaperonin GroEL, > 250 µM; against HSP60/HSP10, 1.2 µM; on E. coli GroEL/ES [2], 0.43 µM; against E. coli GroEL/ES [3] it was 0.66 µM.

Take `O=c1c(O)c(-c2ccc(O)c(O)c2)oc2c(O)c(O)cc(O)c12` [GOSSYPETIN]: the IC50 was 0.33 µM in assay [1]; > 250 µM against Chaperonin GroEL; 7.5 µM against HSP60/HSP10; 0.39 µM at E. coli GroEL/ES [2]; 2.1 µM on E. coli GroEL/ES [3].

For the compound `Oc1c(Cl)cc(Cl)c(Cl)c1Cc1c(O)c(Cl)cc(Cl)c1Cl` [HEXACHLOROPHENE], the IC50 amounted to 51 µM in assay [1]; 153 µM on Chaperonin GroEL; 1.3 µM on HSP60/HSP10; 4.7 µM at E. coli GroEL/ES [2]; 1.4 µM against E. coli GroEL/ES [3].

Turning to `CC[C@H]1OC(=O)[C@H](C)[C@@H](O[C@H]2C[C@@](C)(OC)[C@@H](O)[C@H](C)O2)[C@H](C)[C@@H](O[C@@H]2O[C@H](C)C[C@H](N(C)C)[C@H]2O)[C@](C)(O)C[C@@H](C)C(=O)[C@H](C)[C@@H](O)[C@]1(C)O` [ERYTHROMYCIN], the half-maximal inhibitory concentration (IC50) in assay [1] was > 100 µM; against Chaperonin GroEL it was > 250 µM; against HSP60/HSP10, > 100 µM; against E. coli GroEL/ES [2] it was 178 µM; against E. coli GroEL/ES [3], > 100 µM.

Turning to `CC[n+]1c(-c2ccccc2)c2cc(N)ccc2c2ccc(N)cc21` [HOMIDIUM BROMIDE], the IC50 in assay [1] was 0.83 µM; against Chaperonin GroEL, > 250 µM; at HSP60/HSP10 it was > 100 µM; against E. coli GroEL/ES [2] it was 2.4 µM; at E. coli GroEL/ES [3], > 100 µM.

For the compound `CC1=CC(=O)c2c(O)cccc2C1=O` [PLUMBAGIN], the IC50 in assay [1] is 0.06 µM; on Chaperonin GroEL, > 250 µM; at HSP60/HSP10, 6.3 µM; at E. coli GroEL/ES [2] it was 0.29 µM; on E. coli GroEL/ES [3] it was 3.8 µM.

In the case of `COc1ccc(C(=O)/C=C/c2ccccc2)cc1` [4'-METHOXYCHALCONE], the IC50 in assay [1] is > 100 µM; against Chaperonin GroEL, > 250 µM; against HSP60/HSP10, 16 µM; on E. coli GroEL/ES [2], 30 µM; on E. coli GroEL/ES [3], 13 µM.

Take `CC1=CC(=O)c2ccccc2C1=O` [MENADIONE]: the IC50 in assay [1] is 1 µM; against Chaperonin GroEL it was > 250 µM; against HSP60/HSP10 it was 15 µM; against E. coli GroEL/ES [2] it was 2.5 µM; at E. coli GroEL/ES [3], 9 µM.

Regarding `CC[C@H](C)C1O[C@]2(C=C[C@@H]1C)C[C@@H]1C[C@@H](C/C=C(\C)[C@@H](O[C@H]3C[C@H](OC)[C@@H](O[C@H]4C[C@H](OC)[C@H](NC(C)=O)[C@H](C)O4)[C@H](C)O3)[C@@H](C)/C=C/C=C3\CO[C@@H]4[C@H](O)C(C)=C[C@@H](C(=O)O1)[C@]34O)O2` (stereo not given in full), the IC50 in assay [1] is > 100 µM; against Chaperonin GroEL, > 250 µM; against HSP60/HSP10, 17 µM; on E. coli GroEL/ES [2], 38 µM; against E. coli GroEL/ES [3], 11 µM.

On to `Cc1cc(-c2ccc(/N=N/c3ccc4c(S(=O)(=O)O)cc(S(=O)(=O)O)c(N)c4c3O)c(C)c2)ccc1/N=N/c1ccc2c(S(=O)(=O)O)cc(S(=O)(=O)O)c(N)c2c1O` [EVANS BLUE], for which the IC50 was determined as 8.7 µM in assay [1]; 161 µM at Chaperonin GroEL; 0.17 µM at HSP60/HSP10; 0.087 µM against E. coli GroEL/ES [2]; 0.039 µM on E. coli GroEL/ES [3].

As for `CN(C)c1ccc(C(=C2C=CC(=[N+](C)C)C=C2)c2ccc(N(C)C)cc2)cc1` [GENTIAN VIOLET], the IC50 in assay [1] was 16 µM; against Chaperonin GroEL it was > 250 µM; on HSP60/HSP10, 5.8 µM; against E. coli GroEL/ES [2], 15 µM; at E. coli GroEL/ES [3], 11 µM.

As for `COc1cc(/C=C/C(=O)CC(=O)/C=C/c2ccc(O)c(OC)c2)ccc1O` [CURCUMIN], the IC50 is 56 µM in assay [1]; > 250 µM against Chaperonin GroEL; 8.3 µM at HSP60/HSP10; 2.9 µM against E. coli GroEL/ES [2]; 3.1 µM against E. coli GroEL/ES [3].
